Experiments:
[1] = system: sprangletop, Brdd.; assay: Test F flood (paddy) test; assay type: in vivo, Leptochloa fascicularis; conditions: 21 d, scale 0-100
Description: (§1) Three plastic pots (ca. 16-cm diameter) per rate were partially filled with sterilized Tama silt loam soil comprising a 35:50:15 ratio of sand, silt and clay and 2.6% organic matter. Separate plantings for each of the three pots were as follows. Seeds from the U.S. of monochoria (Monochoria vaginalis), sedge, umbrella (small-flower umbrella sedge, Cyperus difformis), bulrush, […] bulrush, Scirpus juncoides), and […] (purple […] coccinea), were planted into one 16-cm pot for each rate. Seeds from the U.S. of flatsedge, rice (rice flatsedge, Cyperus iria), sprangletop, Brdd. (bearded sprangletop, Leptochloa fascicularis), one stand of 9 or 10 water seeded rice seedlings (Rice, W.S. Jap, Oryza sativa cv. 'Japonica-[…]' or Rice, W.S. Ind, 'Indica'), and two stands of 3 or 4 seedlings of rice, transplanted (transplanted rice, Oryza sativa cv. 'Japonica-[…]') were planted into one 16-cm pot for each rate. Seeds from the U.S. of barnyardgrass (Echinochloa crus-galli), […] (common […], Alisma plantago-aquatica), and watergrass, late (late watergrass, Echinochloa oryzicola) were planted into one 16-cm pot for each rate. Plantings were sequential so that crop and weed species were at the 2.0 to 2.5-leaf stage at time of treatment. Potted plants were grown in a greenhouse with day/night temperature settings of 30/27° C., and supplemental balanced lighting was provided to maintain a 16-h photoperiod. Test pots were maintained in the greenhouse until test completion. At time of treatment, test pots were flooded to 3 cm above the soil surface, treated by application of test compounds directly to the paddy water, and then maintained at that water depth for the duration of the test. Effects of treatments on rice and weeds were visually evaluated by comparison to untreated controls after 21 d. Plant response ratings, summarized in Table F, are based on a scale of 0 to 100 where 0 is no effect and 100 is complete control. A dash (-) response means no test result.

[2] = system: windgrass; assay: Test D pre-/postemergence herbicide test; assay type: in vivo, Apera spica-venti; conditions: for Plant response rating: Postemergence, Windgrass, scale 0 to 100; for Plant response rating, Windgrass: Preemergence, scale 0 to 100 (0 no effect, 100 complete control)
Description: Seeds of plant species selected from bluegrass (annual bluegrass, Poa annua), blackgrass (Alopecurus myosuroides), canarygrass (littleseed canarygrass, Phalaris minor), chickweed (common chickweed, Stellaria media), galium (catchweed bedstraw, Galium aparine), bromegrass, downy (downy bromegrass, Bromus tectorum), field poppy (Papaver rhoeas), field violet (Viola arvensis), foxtail, green (green foxtail, Setaria viridis), deadnettle (henbit deadnettle, Lamium amplexicaule), ryegrass, Italian (Italian ryegrass, Lolium multiflorum), kochia (Kochia scoparia), lambsquarters (Chenopodium album), oilseed rape (Brassica napus), pigweed (Amaranthus retroflexus), chamomile (scentless chamomile, Matricaria inodora), Russian thistle (Salsola kali), speedwell (bird's-eye speedwell, Veronica persica), barley, spring (spring barley, Hordeum vulgare), wheat, spring (spring wheat, Triticum aestivum), buckwheat, wild (wild buckwheat, Polygonum convolvulus), mustard, wild (wild mustard, Sinapis arvensis), oat, wild (wild oat, Avena fatua), radish, wild (wild radish, Raphanus raphanistrum), […]), barley, winter (winter barley, Hordeum vulgare), and wheat, winter (winter wheat, Triticum aestivum) were planted into a silt loam soil and treated preemergence with test chemicals formulated in a non-phytotoxic solvent mixture which included a surfactant. At the same time, these species were planted in pots containing Redi-Earth® planting medium (Scotts Company, 14111 Scottslawn Road, Marysville, Ohio 43041) comprising spaghnum peat moss, vermiculite, wetting agent and starter nutrients and treated with postemergence applications of the test chemicals formulated in the same manner. Plants ranged in height from 2 to 18 cm (1- to 4-leaf stage). Treated plants and controls were maintained in a controlled growth environment for 7 to 21 days after which time all species were compared to controls and visually evaluated. Plant response ratings, summarized in Table D, are based on a scale of 0 to 100 where 0 is no effect and 100 is complete control. A dash (-) response means no test result.

[3] = system: barley (winter barley); assay: Test C postemergence herbicide test; assay type: in vivo, Hordeum vulgare
Description: (§2) At the same time, plants selected from these crop and weed species and also barley (winter barley, Hordeum vulgare), […]), chickweed (common chickweed, Stellaria media), deadnettle (henbit deadnettle, Lamium amplexicaule), and canarygrass (littleseed canarygrass, Phalaris minor) were planted in pots containing Redi-Earth® planting medium (Scotts Company, 14111 Scottslawn Road, Marysville, Ohio 43041) comprising spaghnum peat moss, vermiculite, wetting agent and starter nutrients and treated with postemergence applications of test chemicals formulated in the same manner. Plants ranged in height from 2 to 18 cm (1- to 4-leaf stage) for postemergence treatments. Treated plants and controls were maintained in a greenhouse for 13 to 15 days, after which time all species were compared to controls and visually evaluated. Plant response ratings, summarized in Table C, are based on a scale of 0 to 100 where 0 is no effect and 100 is complete control. A dash (-) response means no test result.

[4] = system: windgrass; assay: Test C postemergence herbicide test; assay type: in vivo, Apera spica-venti
Description: as §2

[5] = system: sedge, umbrella; assay: Test F flood (paddy) test; assay type: in vivo, Cyperus difformis; conditions: 21 d, scale 0-100
Description: as §1

[6] = 31 g ai/ha, scale 0 (no effect) to 100 (complete control)
[7] = 62 g ai/ha, scale 0 to 100 (0 no effect, 100 complete control)
[8] = 125 g ai/ha, scale 0 to 100 (0 no effect, 100 complete control)
[9] = 250 g ai/ha, scale 0 to 100 (0 no effect, 100 complete control)

Structure (SMILES) | Plant response rating, Sprangletop, Brdd. ([1]; 125 g ai/ha) | Plant response rating, Sprangletop, Brdd. ([1]; 250 g ai/ha) | Plant response rating, Sprangletop, Brdd. ([1]; 500 g ai/ha) | Plant response rating ([2]; 16 g ai/ha) | Plant response rating ([2]; 31 g ai/ha) | Plant response rating ([2]; 62 g ai/ha) | Plant response rating ([2]; 125 g ai/ha) | Plant response rating ([2]; 250 g ai/ha) | Plant response rating, Windgrass ([2]; 31 g ai/ha) | Plant response rating, Windgrass ([2]; 62 g ai/ha) | Plant response rating, Windgrass ([2]; 125 g ai/ha) | Plant response rating, Windgrass ([2]; 250 g ai/ha) | other results
CN1CC(c2ccc(F)cc2)C(C(=O)Nc2cccc(F)c2F)C1=O (centres unmarked) [Compound 271] | 30 | 80 | 95 | – | – | – | – | – | – | – | – | – | Plant response rating, Sprangletop, Brdd. ([1]; 64 g ai/ha): 20
O=C1NCC(c2ccc(F)c(F)c2)C1C(=O)Nc1cccc(F)c1 (racemic) [Compound 12] | – | – | – | 0 | 0 | 0 | 0 | 5 | 0 | 0 | 0 | 0 | Plant response rating, Windgrass ([2]; 16 g ai/ha): 0
O=C1NCC(c2cc(F)c(F)c(F)c2)C1C(=O)Nc1ccccc1F (racemic) [Compound 34] | – | – | – | 0 | 0 | 0 | 0 | 0 | – | – | – | – | Plant response rating, Barley [3, 6]: 0; Plant response rating, Barley [3, 7]: 0; Plant response rating, Barley [3, 8]: 0; Plant response rating, Barley [3, 9]: 0; Plant response rating, Windgrass [4, 6]: 0; Plant response rating, Windgrass [4, 7]: 0; Plant response rating, Windgrass [4, 8]: 0; Plant response rating, Windgrass [4, 9]: 5
O=C1NCC(c2cccc(C(F)(F)F)c2)C1C(=O)Nc1cccc(F)c1F (centres unmarked) [Compound 241] | – | – | – | – | – | – | – | – | 65 | 90 | 95 | 98 | –
O=C1NCC(c2cccc(C(F)(F)F)c2)C1C(=O)Nc1ccccc1F (racemic) [Compound 3] | – | 80 | 85 | – | – | – | – | – | – | – | – | – | Plant response rating, Sedge, Umbrella ([5]; 250 g ai/ha): 0; Plant response rating, Sedge, Umbrella ([5]; 500 g ai/ha): 0
O=C1NCC(c2cc(F)c(F)c(F)c2)C1C(=O)Nc1ccccc1C(F)(F)F (racemic) [Compound 33] | – | – | – | 0 | 0 | 0 | 0 | 0 | – | – | – | – | –
O=C1NCC(c2ccccc2)C1C(=O)Nc1ccccc1F (racemic) [Compound 81] | – | – | – | – | – | – | – | – | – | – | – | – | Plant response rating, Barley [3, 6]: 0; Plant response rating, Barley [3, 7]: 0; Plant response rating, Barley [3, 8]: 0; Plant response rating, Barley [3, 9]: 0; Plant response rating, Windgrass [4, 6]: 0; Plant response rating, Windgrass [4, 7]: 0; Plant response rating, Windgrass [4, 8]: 20; Plant response rating, Windgrass [4, 9]: 20
O=C1NCC(c2cccc(C(F)(F)F)c2)C1C(=O)Nc1ccc(F)cc1F (racemic) [Compound 207] | 100 | 100 | 100 | – | – | – | – | – | 5 | 20 | 20 | 65 | –
O=C1NCC(c2ccc(C(F)(F)F)c(F)c2)C1C(=O)Nc1cccc(F)c1F (racemic) [Compound 247] | 90 | 95 | 98 | – | – | – | – | – | – | – | – | – | Plant response rating, Sedge, Umbrella ([5]; 125 g ai/ha): 0; Plant response rating, Sedge, Umbrella ([5]; 250 g ai/ha): 0; Plant response rating, Sedge, Umbrella ([5]; 500 g ai/ha): 0; Plant response rating, Sedge, Umbrella ([5]; 1000 g ai/ha): 0; Plant response rating, Sedge, Umbrella ([5]; 2000 g ai/ha): 0; Plant response rating, Sprangletop, Brdd. ([1]; 1000 g ai/ha): 98; Plant response rating, Sprangletop, Brdd. ([1]; 2000 g ai/ha): 98

From patent publication US10294202B2, “Pyrrolidinones as herbicides” (FMC Corporation, priority 2013, dated 2019)
